Where two headings read alike, the source gives them in different places.

For assay [1], the system named is Mycosphaerella graminicola; Anamorph: Septoria tritici. The assay is described as follows: Leaf Blotch of Wheat (SEPTTR) fungicidal activity on wheat seedlings. The class given is in vivo. Particulars: Zymoseptoria tritici; for pest or weed control at 100 ppm: High Volume; for pest or weed control at 121.5 g/ha: Low Volume, 121.5 g/H. How it is done:
Example A: Evaluation of Fungicidal Activity: Leaf Blotch of Wheat (Mycosphaerella graminicola; Anamorph: Septoria tritici; Bayer code […]): Technical grades of materials were dissolved in acetone, which were then mixed with nine volumes of water (H2O) containing 110 ppm Triton X-100. The fungicide solutions were applied onto wheat seedlings using an automated booth sprayer to run-off. All sprayed plants were allowed to air dry prior to further handling. All fungicides were evaluated using the aforementioned method for their activity vs. all target diseases, unless stated otherwise. Wheat leaf blotch and brown rust activity were also evaluated using track spray applications, in which case the fungicides were formulated as EC formulations, containing 0.1% Trycol 5941 in the spray solutions. Wheat plants (variety Yuma) were grown from seed in a greenhouse in 50% mineral soil/50% soil-less Metro mix until the first leaf was fully emerged, with 7-10 seedlings per pot. These plants were inoculated with an aqueous spore suspension of Septoria tritici either prior to or after fungicide treatments. After inoculation the plants were kept in 100% relative humidity (one day in a dark dew chamber followed by two to three days in a lighted dew chamber at 20° C.) to permit spores to germinate and infect the leaf. The plants were then transferred to a greenhouse set at 20° C. for disease to develop. When disease symptoms were fully expressed on the 1st leaves of untreated plants, infection levels were assessed on a scale of 0 to 100 percent disease severity. Percent disease control was calculated using the ratio of disease severity on treated plants relative to untreated plants.

Assay [2] concerns Puccinia triticina; Synonym: Puccinia recondita f sp. tritici. The assay is described as follows: Wheat Brown Rust (PUCCRT) fungicidal activity on wheat seedlings. The class given is in vivo. Conditions: for pest or weed control at 100 ppm: High Volume; for pest or weed control at 121.5 g/ha: Low Volume, 121.5 g/H. How it is done:
Technical grades of materials were dissolved in acetone, which were then mixed with nine volumes of water (H2O) containing 110 ppm Triton X-100. The fungicide solutions were applied onto wheat seedlings using an automated booth sprayer to run-off. All sprayed plants were allowed to air dry prior to further handling. All fungicides were evaluated using the aforementioned method for their activity vs. all target diseases, unless stated otherwise. Wheat leaf blotch and brown rust activity were also evaluated using track spray applications, in which case the fungicides were formulated as EC formulations, containing 0.1% Trycol 5941 in the spray solutions. Wheat plants (variety Yuma) were grown from seed in a greenhouse in 50% mineral soil/50% soil-less Metro mix until the first leaf was fully emerged, with 7-10 seedlings per pot. These plants were inoculated with an aqueous spore suspension of Septoria tritici either prior to or after fungicide treatments. After inoculation the plants were kept in 100% relative humidity (one day in a dark dew chamber followed by two to three days in a lighted dew chamber at 20° C.) to permit spores to germinate and infect the leaf. The plants were then transferred to a greenhouse set at 20° C. for disease to develop. When disease symptoms were fully expressed on the 1st leaves of untreated plants, infection levels were assessed on a scale of 0 to 100 percent disease severity. Percent disease control was calculated using the ratio of disease severity on treated plants relative to untreated plants. Example B: Evaluation of Fungicidal Activity: Wheat Brown Rust (Puccinia triticina; Synonym: Puccinia recondita f sp. tritici; Bayer code PUCCRT): Wheat plants (variety Yuma) were grown from seed in a greenhouse in 50% mineral soil/50% soil-less Metro mix until the first leaf was fully emerged, with 7-10 seedlings per pot. These plants were inoculated with an aqueous spore suspension of Puccinia triticina either prior to or after fungicide treatments. After inoculation the plants were kept in a dark dew room at 22° C. with 100% relative humidity overnight to permit spores to germinate and infect the leaf. The plants were then transferred to a greenhouse set at 24° C. for disease to develop. Fungicide formulation, application and disease assessment followed the procedures as described in the Example A.

Setting [3] is: 24 h, 1 Day Protectant, read-out: SEPTTR 1DP disease control.
Setting [4] is: 72 h, 3 Day Curative, read-out: SEPTTR 3DC disease control.
The mark [5] stands for this setting: 24 h, 1 Day Protectant, read-out: PUCCRT 1DP disease control.
The mark [6] stands for this setting: 72 h, 3 Day Curative, read-out: PUCCRT 3DC disease control.

`CCOC(c1ccccc1)(c1ccccc1)[C@H](C)OC(=O)[C@H](C)NC(=O)c1nccc(OC)c1O` [Cmpd 93]: the pest or weed control at 100 ppm was greater than 80% in assay [1] (setting [3]), less than 80% in assay [1] (setting [4]) and less than 80% in assay [2] (setting [5]).

Consider `COc1ccnc(C(=O)N[C@@H](C)C(=O)O[C@@H](C)[C@@H](c2ccccc2)c2ccc(F)cc2)c1O` [Cmpd 125], for which the pest or weed control at 100 ppm in assay [1] (setting [3]), in assay [1] (setting [4]), in assay [2] (setting [5]) and in assay [2] (setting [6]) was greater than 80% throughout.

Regarding `COc1cccc(C(c2cccc(OC)c2)[C@H](C)OC(=O)[C@H](C)NC(=O)c2nccc(OC)c2OCOC(C)=O)c1` [Cmpd 192], the pest or weed control at 121.5 g/ha in assay [1] (setting [3]), in assay [1] (setting [4]), in assay [2] (setting [5]) and in assay [2] (setting [6]) was greater than 80% each time.

With `COc1ccnc(C(=O)N[C@@H](C)C(=O)O[C@@H](C)C(c2ccc(F)c(C)c2)c2ccc(F)c(C)c2)c1OC(C)=O` [Cmpd 217], the pest or weed control at 121.5 g/ha in assay [1] (setting [3]) is greater than 80%; in assay [1] (setting [4]) it was greater than 80%; in assay [2] (setting [5]), greater than 80%; in assay [2] (setting [6]) it was less than 80%.

As to `COc1ccnc(C(=O)N[C@@H](C)C(=O)O[C@@H](C)C(O)(c2ccc(Cl)cc2F)c2ccc(Cl)cc2F)c1OCOC(C)=O` [Cmpd 193], the pest or weed control at 121.5 g/ha in assay [1] (setting [3]) is greater than 80%; in assay [1] (setting [4]), greater than 80%; in assay [2] (setting [5]), less than 80%.

As to `COc1ccnc(C(=O)N[C@@H](C)C(=O)O[C@@H](C)C(c2ccc(C)cc2)c2ccc(C)cc2)c1OC(=O)C(C)C` [Cmpd 168], the pest or weed control at 121.5 g/ha in assay [1] (setting [3]) was greater than 80%; in assay [1] (setting [4]) it was greater than 80%; in assay [2] (setting [5]), greater than 80%; in assay [2] (setting [6]), less than 80%.

Turning to `CCOCC(=O)OCOc1c(OC)ccnc1C(=O)N[C@@H](C)C(=O)O[C@@H](C)C(c1ccc(F)cc1)c1ccc(F)cc1` [Cmpd 212], the pest or weed control at 121.5 g/ha in assay [1] (setting [3]), in assay [1] (setting [4]), in assay [2] (setting [5]) and in assay [2] (setting [6]) was greater than 80% in each case.

With `COc1ccnc(C(=O)N[C@@H](C)C(=O)O[C@@H](C)C(c2ccc(Br)cc2)c2ccc(Br)cc2)c1OCOC(C)=O` [Cmpd 169], the pest or weed control at 121.5 g/ha in assay [1] (setting [3]) was greater than 80%; in assay [1] (setting [4]), greater than 80%; in assay [2] (setting [5]), greater than 80%; in assay [2] (setting [6]), less than 80%.

On to `CC(=O)OCOc1ccccc1C(=O)N[C@@H](C)C(=O)O[C@@H](C)C(c1ccc(F)cc1)c1ccc(F)cc1` [Cmpd 180], for which, in assay [1] (setting [3]), the pest or weed control at 121.5 g/ha was less than 80%.

For `COc1ccnc(C(=O)N[C@@H](C)C(=O)O[C@@H](C)C(c2ccc(-c3ccccc3)cc2)c2ccc(-c3ccccc3)cc2)c1O` [Cmpd 109], the pest or weed control at 100 ppm in assay [1] (setting [4]) and in assay [2] (setting [5]) was less than 80% throughout.

For `COc1ccnc(C(=O)N[C@@H](C)C(=O)O[C@@H](C)C(c2cccs2)c2cccs2)c1O` [Cmpd 91], the pest or weed control at 100 ppm was greater than 80% in assay [1] (setting [3]), greater than 80% in assay [2] (setting [5]) and less than 80% in assay [2] (setting [6]).

For `COc1ccnc(C(=O)N[C@@H](C)C(=O)O[C@@H](C)C(c2ccc(Br)cc2)c2ccc(Br)cc2)c1OC(C)=O` [Cmpd 165], the pest or weed control at 121.5 g/ha in assay [1] (setting [3]) was greater than 80%; in assay [1] (setting [4]) it was greater than 80%; in assay [2] (setting [5]) it was greater than 80%; in assay [2] (setting [6]), less than 80%.

Turning to `COc1ccnc(C(=O)N[C@H](C(=O)O[C@@H](C)C(c2ccc(F)cc2)c2ccc(F)cc2)C(C)C)c1OC(C)=O` [Cmpd 189], the pest or weed control at 121.5 g/ha was greater than 80% in assay [1] (setting [3]), greater than 80% in assay [1] (setting [4]), greater than 80% in assay [2] (setting [5]) and less than 80% in assay [2] (setting [6]).

Regarding `COc1ccnc(C(=O)N[C@@H](C)C(=O)O[C@@H](C)C(O)(c2ccc(Cl)c(F)c2)c2ccc(Cl)c(F)c2)c1OCOC(C)=O` [Cmpd 202], the pest or weed control at 121.5 g/ha in assay [1] (setting [3]) and in assay [1] (setting [4]) was greater than 80% in each case.

With `COc1ccnc(C(=O)N[C@@H](C)C(=O)O[C@@H](C)C(c2ccc(F)cc2)c2ccc(F)cc2)c1O` [Cmpd 92], the pest or weed control at 100 ppm in assay [1] (setting [3]), in assay [1] (setting [4]), in assay [2] (setting [5]) and in assay [2] (setting [6]) was greater than 80% throughout.

Turning to `COc1ccnc(C(=O)N[C@@H](C)C(=O)O[C@@H](C)C(c2ccc(C)cc2)c2ccc(C)cc2)c1O` [Cmpd 105], the pest or weed control at 100 ppm in assay [1] (setting [3]), in assay [1] (setting [4]), in assay [2] (setting [5]) and in assay [2] (setting [6]) was greater than 80% in each case.

For the compound `COc1ccnc(C(=O)N[C@@H](C)C(=O)O[C@@H](C)C(F)(c2ccccc2)c2ccccc2)c1OCOC(C)=O` [Cmpd 153], the pest or weed control at 121.5 g/ha in assay [1] (setting [3]) is greater than 80%; in assay [1] (setting [4]), greater than 80%; in assay [2] (setting [5]), less than 80%; in assay [2] (setting [6]), less than 80%.

Turning to `COc1ccnc(C(=O)N[C@@H](C)C(=O)O[C@@H](C)C(c2ccc(C)cc2)c2ccc(C)cc2)c1OC(C)=O` [Cmpd 167], the pest or weed control at 121.5 g/ha in assay [1] (setting [3]), in assay [1] (setting [4]), in assay [2] (setting [5]) and in assay [2] (setting [6]) was greater than 80% each time.

Turning to `COc1ccnc(C(=O)N[C@@H](C)C(=O)OC(C)C2c3ccccc3-c3ccccc32)c1OC(C)=O` (some centres unmarked) [Cmpd 161], the pest or weed control at 121.5 g/ha is less than 80% in assay [1] (setting [3]) and greater than 80% in assay [1] (setting [4]).

For the compound `COc1ccnc(C(=O)N[C@@H](C)C(=O)O[C@@H](C)C(c2ccc(-c3ccccc3)cc2)c2ccc(-c3ccccc3)cc2)c1OCOC(C)=O` [Cmpd 181], the pest or weed control at 121.5 g/ha in assay [1] (setting [3]) and in assay [1] (setting [4]) was less than 80% each time.

Turning to `COc1ccnc(C(=O)N[C@@H](C)C(=O)O[C@@H](C)C(O)(c2ccccc2F)c2ccccc2F)c1O` [Cmpd 122], the pest or weed control at 100 ppm in assay [1] (setting [3]) and in assay [1] (setting [4]) was less than 80% in each case.

With `COc1ccnc(C(=O)N[C@@H](C)C(=O)OC(C)C2c3ccccc3Oc3ccccc32)c1OC(C)=O` (some centres unmarked) [Cmpd 162], in assay [1] (setting [4]), the pest or weed control at 121.5 g/ha was less than 80%.

On to `COc1ccnc(C(=O)N[C@@H](C)C(=O)OC(C)C2c3ccccc3-c3ccccc32)c1O` (some centres unmarked) [Cmpd 101], for which the pest or weed control at 100 ppm in assay [1] (setting [3]) was less than 80%.

Take `C[C@H](NC(=O)c1ccccc1O)C(=O)O[C@@H](C)C(c1ccc(F)cc1)c1ccc(F)cc1` [Cmpd 112]: the pest or weed control at 100 ppm in assay [1] (setting [3]) and in assay [1] (setting [4]) was less than 80% throughout.

In the case of `COc1ccnc(C(=O)N[C@@H](C)C(=O)O[C@@H](C)C(O)(c2ccccc2F)c2ccccc2F)c1OCOC(C)=O` [Cmpd 196], the figures for the pest or weed control at 121.5 g/ha in assay [1] (setting [3]) and in assay [1] (setting [4]) were greater than 80% and less than 80%, respectively.

`COc1ccnc(C(=O)N[C@@H](C)C(=O)O[C@@H](C)C(O)(c2ccc(Cl)cc2F)c2ccc(Cl)cc2F)c1O` [Cmpd 119]: the figures for the pest or weed control at 100 ppm in assay [1] (setting [3]) and in assay [1] (setting [4]) were greater than 80% and less than 80%, respectively.

In the case of `COc1ccnc(C(=O)N[C@@H](C)C(=O)OC(C)C2c3ccccc3Oc3ccccc32)c1OCOC(C)=O` (some centres unmarked) [Cmpd 164], the pest or weed control at 121.5 g/ha in assay [1] (setting [3]) was less than 80%.

The record behind these values is patent US20240423207A1, “PICOLINAMIDE COMPOUNDS WITH FUNGICIDAL ACTIVITY” (CORTEVA AGRISCIENCE LLC, priority 2014, published 2024).
